Legend:
Adenosine receptor A3 = biological target: T1, Adenosine receptor A3 (Homo sapiens, UniProt P0DMS8)
T1 sequence (P0DMS8 whole entry): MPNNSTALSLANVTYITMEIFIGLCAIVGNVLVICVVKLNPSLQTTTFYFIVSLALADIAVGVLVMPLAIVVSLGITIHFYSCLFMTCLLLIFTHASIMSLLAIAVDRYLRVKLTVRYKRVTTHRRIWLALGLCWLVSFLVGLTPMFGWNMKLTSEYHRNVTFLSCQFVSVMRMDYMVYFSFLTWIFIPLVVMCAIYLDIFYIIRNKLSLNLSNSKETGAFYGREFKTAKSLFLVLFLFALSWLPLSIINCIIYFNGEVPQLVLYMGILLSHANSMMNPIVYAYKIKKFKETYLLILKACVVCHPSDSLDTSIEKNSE

[1] = biological target: 5-hydroxytryptamine receptor 2B (Homo sapiens, UniProt P41595); type: functional, cell-based
[2] = biological target: Sodium-dependent noradrenaline transporter (Homo sapiens, UniProt P23975)
[3] = biological target: T2, 5-hydroxytryptamine receptor 2C (Homo sapiens, UniProt P28335)
T2 sequence (P28335 whole entry): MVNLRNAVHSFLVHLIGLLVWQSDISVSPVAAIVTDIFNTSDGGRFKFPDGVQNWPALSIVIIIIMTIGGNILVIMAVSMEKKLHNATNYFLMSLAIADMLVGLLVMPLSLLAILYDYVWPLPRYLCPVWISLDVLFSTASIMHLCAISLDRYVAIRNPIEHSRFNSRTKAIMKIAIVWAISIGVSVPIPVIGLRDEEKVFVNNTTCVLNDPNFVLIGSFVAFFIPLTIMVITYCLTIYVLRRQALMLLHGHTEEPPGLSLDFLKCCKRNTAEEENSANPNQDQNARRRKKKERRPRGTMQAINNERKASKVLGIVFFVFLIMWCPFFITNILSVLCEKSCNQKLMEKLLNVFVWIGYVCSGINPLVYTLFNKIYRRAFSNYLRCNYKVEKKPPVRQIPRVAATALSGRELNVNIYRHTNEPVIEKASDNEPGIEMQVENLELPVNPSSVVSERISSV

[4] = biological target: T3, 5-hydroxytryptamine receptor 1A (Homo sapiens, UniProt P08908); type: functional, cell-based
T3 sequence (P08908 whole entry): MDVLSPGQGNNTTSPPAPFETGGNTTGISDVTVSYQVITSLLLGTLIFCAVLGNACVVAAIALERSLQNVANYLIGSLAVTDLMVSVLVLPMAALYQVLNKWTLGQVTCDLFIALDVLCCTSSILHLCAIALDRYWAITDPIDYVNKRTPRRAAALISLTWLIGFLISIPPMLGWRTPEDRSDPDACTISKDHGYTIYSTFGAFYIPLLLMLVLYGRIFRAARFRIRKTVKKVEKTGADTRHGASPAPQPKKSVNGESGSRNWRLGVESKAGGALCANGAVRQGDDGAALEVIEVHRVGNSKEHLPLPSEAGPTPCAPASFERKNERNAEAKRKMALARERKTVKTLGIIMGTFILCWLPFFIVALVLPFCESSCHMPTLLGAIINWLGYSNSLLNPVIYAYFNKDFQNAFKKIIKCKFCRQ

Estrogen receptor = biological target: T4, Estrogen receptor (Homo sapiens, UniProt P03372)
T4 sequence (P03372 whole entry): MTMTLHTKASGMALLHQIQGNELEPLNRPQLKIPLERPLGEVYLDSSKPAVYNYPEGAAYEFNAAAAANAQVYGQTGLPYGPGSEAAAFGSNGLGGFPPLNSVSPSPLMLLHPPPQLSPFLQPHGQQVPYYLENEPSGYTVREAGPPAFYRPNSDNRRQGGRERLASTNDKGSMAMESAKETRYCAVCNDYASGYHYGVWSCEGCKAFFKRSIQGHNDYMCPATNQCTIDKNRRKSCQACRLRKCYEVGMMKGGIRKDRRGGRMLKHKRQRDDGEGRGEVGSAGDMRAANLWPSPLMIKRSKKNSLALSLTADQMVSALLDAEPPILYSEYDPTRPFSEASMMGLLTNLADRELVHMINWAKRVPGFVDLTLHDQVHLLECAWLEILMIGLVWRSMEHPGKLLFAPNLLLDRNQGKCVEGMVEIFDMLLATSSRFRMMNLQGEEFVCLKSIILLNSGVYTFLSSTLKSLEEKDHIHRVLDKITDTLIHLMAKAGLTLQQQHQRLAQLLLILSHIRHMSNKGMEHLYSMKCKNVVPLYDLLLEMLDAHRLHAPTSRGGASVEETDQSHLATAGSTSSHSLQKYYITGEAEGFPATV

[5] = biological target: T5, Alpha-2A adrenergic receptor (Homo sapiens, UniProt P08913); type: functional, cell-based
T5 sequence (P08913 whole entry): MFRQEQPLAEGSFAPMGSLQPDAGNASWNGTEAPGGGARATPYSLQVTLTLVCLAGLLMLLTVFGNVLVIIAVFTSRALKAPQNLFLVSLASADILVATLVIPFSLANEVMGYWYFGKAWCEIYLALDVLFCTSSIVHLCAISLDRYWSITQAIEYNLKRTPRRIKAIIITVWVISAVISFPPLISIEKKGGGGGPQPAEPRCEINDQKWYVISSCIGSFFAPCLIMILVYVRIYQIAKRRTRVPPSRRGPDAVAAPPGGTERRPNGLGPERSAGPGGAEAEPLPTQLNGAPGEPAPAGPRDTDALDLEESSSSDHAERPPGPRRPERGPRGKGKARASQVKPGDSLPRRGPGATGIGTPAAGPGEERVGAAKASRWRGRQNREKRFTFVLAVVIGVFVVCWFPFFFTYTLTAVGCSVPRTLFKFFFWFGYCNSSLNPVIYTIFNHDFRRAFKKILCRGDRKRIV

Adenosine receptor A1 = biological target: T6, Adenosine receptor A1 (Homo sapiens, UniProt P30542)
T6 sequence (P30542 whole entry): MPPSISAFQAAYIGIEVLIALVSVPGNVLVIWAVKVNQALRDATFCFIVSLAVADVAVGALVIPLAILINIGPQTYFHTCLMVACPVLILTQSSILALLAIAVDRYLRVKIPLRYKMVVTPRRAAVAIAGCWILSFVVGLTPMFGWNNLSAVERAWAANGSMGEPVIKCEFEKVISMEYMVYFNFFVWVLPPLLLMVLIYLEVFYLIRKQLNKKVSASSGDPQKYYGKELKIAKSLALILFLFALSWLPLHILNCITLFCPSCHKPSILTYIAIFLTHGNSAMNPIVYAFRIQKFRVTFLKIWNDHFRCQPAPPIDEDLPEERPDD

[6] = biological target: Beta-2 adrenergic receptor (Homo sapiens, UniProt P07550)
[7] = biological target: Voltage-gated inwardly rectifying potassium channel KCNH2 (Homo sapiens, UniProt Q12809); type: functional; details: read-out: AC50
Cannabinoid receptor 1 = Cannabinoid receptor 1 (Homo sapiens, UniProt P21554); type: functional, cell-based
Further: assay procedure not described here.

Sequence of Beta-2 adrenergic receptor (P07550 whole entry): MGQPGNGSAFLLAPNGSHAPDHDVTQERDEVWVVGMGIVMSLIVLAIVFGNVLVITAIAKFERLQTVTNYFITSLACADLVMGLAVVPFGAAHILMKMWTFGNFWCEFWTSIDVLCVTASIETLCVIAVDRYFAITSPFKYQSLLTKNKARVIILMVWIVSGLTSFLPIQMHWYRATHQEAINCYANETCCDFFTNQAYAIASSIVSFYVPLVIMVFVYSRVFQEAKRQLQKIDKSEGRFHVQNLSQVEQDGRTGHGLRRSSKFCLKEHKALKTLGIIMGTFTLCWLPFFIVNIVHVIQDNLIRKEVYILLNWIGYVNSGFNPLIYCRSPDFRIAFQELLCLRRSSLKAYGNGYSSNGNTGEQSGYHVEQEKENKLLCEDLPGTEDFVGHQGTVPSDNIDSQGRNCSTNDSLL
Sequence of Sodium-dependent noradrenaline transporter (P23975 whole entry): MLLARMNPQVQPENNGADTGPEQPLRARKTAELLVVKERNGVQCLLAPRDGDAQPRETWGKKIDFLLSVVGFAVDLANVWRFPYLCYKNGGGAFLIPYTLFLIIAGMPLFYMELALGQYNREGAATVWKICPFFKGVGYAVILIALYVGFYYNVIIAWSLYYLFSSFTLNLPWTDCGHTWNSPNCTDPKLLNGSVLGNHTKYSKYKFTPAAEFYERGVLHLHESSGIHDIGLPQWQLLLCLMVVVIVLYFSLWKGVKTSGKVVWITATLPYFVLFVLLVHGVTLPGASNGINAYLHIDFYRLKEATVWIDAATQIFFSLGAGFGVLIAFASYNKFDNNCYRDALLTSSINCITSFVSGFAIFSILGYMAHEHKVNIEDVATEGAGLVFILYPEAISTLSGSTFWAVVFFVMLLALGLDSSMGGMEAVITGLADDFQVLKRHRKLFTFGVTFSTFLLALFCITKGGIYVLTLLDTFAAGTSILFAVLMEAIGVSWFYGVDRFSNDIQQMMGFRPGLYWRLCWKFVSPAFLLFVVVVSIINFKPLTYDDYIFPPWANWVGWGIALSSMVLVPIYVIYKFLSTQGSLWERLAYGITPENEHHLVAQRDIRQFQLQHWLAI
Sequence of Voltage-gated inwardly rectifying potassium channel KCNH2 (Q12809 whole entry): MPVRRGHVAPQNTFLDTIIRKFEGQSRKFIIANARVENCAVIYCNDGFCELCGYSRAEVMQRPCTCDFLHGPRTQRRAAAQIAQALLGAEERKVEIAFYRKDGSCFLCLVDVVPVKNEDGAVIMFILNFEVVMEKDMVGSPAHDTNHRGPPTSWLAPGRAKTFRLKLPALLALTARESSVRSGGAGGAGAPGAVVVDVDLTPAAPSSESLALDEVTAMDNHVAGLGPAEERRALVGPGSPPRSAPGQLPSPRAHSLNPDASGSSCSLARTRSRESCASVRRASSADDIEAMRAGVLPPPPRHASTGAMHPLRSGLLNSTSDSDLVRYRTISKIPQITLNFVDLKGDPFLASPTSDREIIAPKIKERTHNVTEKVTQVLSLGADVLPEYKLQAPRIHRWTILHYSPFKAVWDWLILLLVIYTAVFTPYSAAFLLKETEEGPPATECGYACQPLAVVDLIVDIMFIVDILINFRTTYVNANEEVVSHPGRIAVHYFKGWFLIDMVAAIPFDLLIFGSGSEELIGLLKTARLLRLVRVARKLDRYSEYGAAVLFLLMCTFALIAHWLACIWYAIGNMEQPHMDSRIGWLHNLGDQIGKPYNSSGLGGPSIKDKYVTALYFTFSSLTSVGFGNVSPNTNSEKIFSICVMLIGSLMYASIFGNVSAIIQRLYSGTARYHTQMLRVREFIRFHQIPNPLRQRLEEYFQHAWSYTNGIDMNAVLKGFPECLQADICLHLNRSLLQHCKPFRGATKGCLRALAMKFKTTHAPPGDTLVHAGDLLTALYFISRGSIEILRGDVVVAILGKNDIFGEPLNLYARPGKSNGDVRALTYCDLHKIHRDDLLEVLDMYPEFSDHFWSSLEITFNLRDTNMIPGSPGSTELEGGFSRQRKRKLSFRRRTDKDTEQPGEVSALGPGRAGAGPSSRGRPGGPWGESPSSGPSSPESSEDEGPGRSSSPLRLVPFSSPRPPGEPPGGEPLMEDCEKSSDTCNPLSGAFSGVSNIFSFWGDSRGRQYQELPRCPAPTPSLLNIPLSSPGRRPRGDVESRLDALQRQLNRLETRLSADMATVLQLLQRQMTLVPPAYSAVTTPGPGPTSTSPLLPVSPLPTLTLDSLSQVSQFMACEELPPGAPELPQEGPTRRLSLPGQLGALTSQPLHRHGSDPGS
Sequence of 5-hydroxytryptamine receptor 2B (P41595 whole entry): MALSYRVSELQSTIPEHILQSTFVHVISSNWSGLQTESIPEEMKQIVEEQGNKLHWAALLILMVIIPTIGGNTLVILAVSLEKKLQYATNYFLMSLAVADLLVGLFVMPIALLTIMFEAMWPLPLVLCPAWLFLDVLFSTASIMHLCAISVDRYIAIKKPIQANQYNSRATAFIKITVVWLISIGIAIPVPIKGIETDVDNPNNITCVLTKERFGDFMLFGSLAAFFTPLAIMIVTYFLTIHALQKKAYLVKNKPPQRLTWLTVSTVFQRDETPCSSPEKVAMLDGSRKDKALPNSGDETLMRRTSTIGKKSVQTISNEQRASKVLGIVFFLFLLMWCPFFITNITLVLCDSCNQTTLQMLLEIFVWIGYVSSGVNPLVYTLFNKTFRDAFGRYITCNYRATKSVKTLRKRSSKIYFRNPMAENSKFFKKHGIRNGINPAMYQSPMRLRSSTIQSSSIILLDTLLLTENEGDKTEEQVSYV
Sequence of Cannabinoid receptor 1 (P21554 whole entry): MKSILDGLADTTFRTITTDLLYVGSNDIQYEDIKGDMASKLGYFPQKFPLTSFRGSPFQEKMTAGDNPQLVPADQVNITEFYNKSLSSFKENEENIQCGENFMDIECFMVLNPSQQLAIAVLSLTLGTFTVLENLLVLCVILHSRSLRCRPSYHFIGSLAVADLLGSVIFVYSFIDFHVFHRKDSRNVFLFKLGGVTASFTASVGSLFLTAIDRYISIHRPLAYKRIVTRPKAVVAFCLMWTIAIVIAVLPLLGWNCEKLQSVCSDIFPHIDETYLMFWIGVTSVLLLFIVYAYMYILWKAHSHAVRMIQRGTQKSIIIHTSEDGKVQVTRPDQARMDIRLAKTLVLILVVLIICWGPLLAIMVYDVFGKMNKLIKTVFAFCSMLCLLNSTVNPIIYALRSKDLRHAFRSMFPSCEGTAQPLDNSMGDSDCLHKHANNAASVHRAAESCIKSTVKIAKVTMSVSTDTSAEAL

SMILES | AC50 (Adenosine receptor A3) [µM] | AC50 [1] [µM] | AC50 [2] [µM] | AC50 [3] [µM] | AC50 [4] [µM] | AC50 (Estrogen receptor) [µM] | AC50 [5] [µM] | AC50 (Adenosine receptor A1) [µM] | AC50 [6] [µM] | AC50 [7] [µM] | AC50 (Cannabinoid receptor 1) [µM]
CC(=O)OCC(=O)[C@@]12OC3(CCCC3)O[C@@H]1C[C@H]1[C@@H]3CCC4=CC(=O)C=C[C@]4(C)[C@@]3(F)[C@@H](O)C[C@@]12C [AMCINONIDE] | > 10 | > 10 | > 10 | > 30 | > 10 | > 30 | > 10 | > 10 | > 10 | 17.3 | 
CN1C(=O)CC(=O)N(c2ccccc2)c2cc(Cl)ccc21 [CLOBAZAM] | > 10 | > 10 | > 10 | > 30 | > 10 | > 10 | > 10 | > 10 | > 10 | > 30 | 
CC(=O)O[C@@]12CO[C@@H]1C[C@H](O)[C@@]1(C)C(=O)[C@H](O)C3=C(C)[C@@H](OC(=O)[C@H](O)[C@@H](NC(=O)OC(C)(C)C)c4ccccc4)C[C@@](O)([C@@H](OC(=O)c4ccccc4)[C@H]21)C3(C)C [DOCETAXEL ANHYDROUS] | > 30 | > 30 | > 30 | > 30 | > 30 | > 30 | > 30 | > 30 | > 30 | > 30 | 
C#CC1(OC(N)=O)CCCCC1 [ETHINAMATE] | > 10 | > 10 | > 10 | > 30 | > 10 | > 10 | > 10 | > 10 | > 10 | > 30 | 
O=C1CN=C(c2ccccc2)c2cc(Cl)ccc2N1CC(F)(F)F [HALAZEPAM] | 26 | > 30 | > 30 |  | > 30 | > 30 | > 30 | > 30 |  | > 30 | > 30
O=C(CCCCC(=O)Nc1c(I)cc(I)c(C(=O)O)c1I)Nc1c(I)cc(I)c(C(=O)O)c1I [IODIPAMIDE] | > 10 | > 10 | > 10 | > 30 | > 10 | > 10 | > 10 | > 10 | > 10 | > 30 | 
CC(C)[N+](C)(CCC(C(N)=O)(c1ccccc1)c1ccccc1)C(C)C [ISOPROPAMIDE] | > 10 | > 10 | > 10 | > 30 | > 10 | > 10 | > 10 | > 10 | > 10 | 3.3 | 
CN1CC[C@]23CCCC[C@H]2[C@H]1Cc1ccc(O)cc13 [LEVORPHANOL] | > 10 | > 10 | > 30 | > 30 | > 10 | > 10 | 9 | > 10 | > 10 | 13.4 | 
CC1=CC(=O)c2ccccc2C1=O [MENADIONE] | 13.7 | > 10 | > 10 | > 30 | > 10 | > 30 | > 10 | > 30 | > 10 | > 30 | 
COc1ccccc1OCC(O)COC(N)=O (centres undefined) [METHOCARBAMOL] | > 10 | > 10 | > 10 | > 30 | > 10 | > 30 | > 10 | > 10 | > 10 | > 30 | 
CN1CCCN=C1COC(=O)C(O)(c1ccccc1)C1CCCCC1 (centres undefined) [OXYPHENCYCLIMINE] | > 10 | > 10 | > 30 | > 30 | > 10 | > 10 | > 10 | > 10 | > 10 | 3.77 | 
CN1CCC2=C(C1)C(c1ccccc1)c1ccccc12 (centres undefined) [PHENINDAMINE] | > 10 | > 10 | > 30 | > 30 | > 10 | > 30 | > 10 | > 10 | > 10 | > 30 | 
C#CCN[C@@H]1CCc2ccccc21 [RASAGILINE] | > 30 | > 30 | > 30 | > 30 | > 30 | > 30 | > 30 | > 30 | > 30 | > 30 | 
CN[C@@H]1[C@H](O)[C@H](NC)[C@H]2O[C@@]3(O)C(=O)C[C@@H](C)O[C@H]3O[C@@H]2[C@H]1O [SPECTINOMYCIN] | > 10 | > 30 | > 10 | > 30 | > 30 | > 10 | > 10 | > 10 | > 10 | > 30 | 
CC(=O)NS(=O)(=O)c1ccc(N)cc1 [SULFACETAMIDE] | > 10 | > 10 | > 10 | > 30 | > 10 | > 10 | > 10 | > 10 | > 10 | > 30 | 
COc1ccc(C(=O)N2CCN(c3ccc4c(c3)CCC(=O)N4)CC2)cc1OC [VESNARINONE] | > 30 | > 30 | > 30 | > 30 |  | > 30 | > 30 | > 30 | > 30 | > 30 | > 30
